Measurements taken from patent US11673876B2, “Substituted aminobenzyl heteroaryl compounds as EGFR and/or PI3K inhibitors” (Mekanistic Therapeutics LLC, priority 2020, dated 2023).

Legend:
Format in all cases: biochemical
PI3Ka = PI3Ka (Homo sapiens (Human), UniProt P42336); test: Z'-LYTE / Adapta kinase assay, PI3Ka; conditions: read-out: PI3Ka % Inh. @ 100 nM
Text: (§1) The Z′-LYTE® biochemical assay employs a fluorescence-based, coupled-enzyme format and is based on the differential sensitivity of phosphorylated and non-phosphorylated peptides to proteolytic cleavage (FIG. 6). The peptide substrate is labeled with two fluorophores one at each end—that make up a FRET pair. In the primary reaction, the kinase transfers the gamma-phosphate of ATP to a single tyrosine, serine or threonine residue in a synthetic FRET-peptide. In the secondary reaction, a site-specific protease recognizes and cleaves non-phosphorylated FRET-peptides. Phosphorylation of FRET-peptides suppresses cleavage by the Development Reagent. Cleavage disrupts FRET between the donor (i.e., coumarin) and acceptor (i.e., fluorescein) fluorophores on the FRET-peptide, whereas uncleaved, phosphorylated FRET-peptides maintain FRET. A ratiometric method, which calculates the ratio (the Emission Ratio) of donor emission to acceptor emission after excitation of the donor fluorophore at 400 nm, is used to quantitate reaction progress.
(§2) A significant benefit of this ratiometric method for quantitating reaction progress is the elimination of well-to-well variations in FRET-peptide concentration and signal intensities. As a result, the assay yields very high Z′-factor values (>0.7) at a low percent phosphorylation.
(§3) Both cleaved and uncleaved FRET-peptides contribute to the fluorescence signals and therefore to the Emission Ratio. The extent of phosphorylation of the FRET-peptide can be calculated from the Emission Ratio.
(§4) Enzyme: The ADAPTA universal kinase assay is a homogenous, fluorescent based immunoassay for the detection of ADP. In contrast to ATP depletion assays, the ADAPTA assay is extremely sensitive to ADP formation such that a majority of the signal change occurs in the first 10-20% conversion of ATP to ADP. This makes the ADAPTA universal kinase assay ideally suited for use with low activity kinases.
(§5) The principle of the ADAPTA universal kinase assay is outlined below. The assay itself can be divided into two phases: a kinase reaction phase, and an ADP detection phase. In the kinase reaction phase, all components required for the kinase reaction are added to the well, and the reaction is allowed to incubate for 60 minutes.
(§6) Z′-LYTE® Assay Conditions:
(§7) Test Compounds: The Test Compounds are screened in 1% DMSO (final) in the well. For 10 point titrations, 3-fold serial dilutions are conducted from the starting concentration.
(§8) Peptide/Kinase Mixtures: All Peptide/Kinase Mixtures are diluted to a 2× working concentration in the appropriate Kinase Buffer.
(§9) ATP Solution: All ATP Solutions are diluted to a 4× working concentration in Kinase Buffer (50 mM HEPES pH 7.5, 0.01% BRIJ-35, 10 mM MgCl2, 1 mM EGTA). ATP Km apparent is previously determined using a Z′-LYTE® assay.
(§10) Development Reagent Solution: The Development Reagent is diluted in Development Buffer. […]
(§11) 2.5 μL—4× Test Compound or 100 nL 100× plus 2.4 μL kinase buffer. 2. 5 μL—2× Peptide/Kinase Mixture. 3. 2.5 μL—4× ATP Solution. 4. 30-second plate shake. 5. 60-minute Kinase Reaction incubation at room temperature. 6. 5 μL—Development Reagent Solution. 7. 30-second plate shake. 8. 60-minute Development Reaction incubation at room temperature. 9.

DNA-PK = DNA-PK (Homo sapiens (Human), UniProt P78527); test: Z'-LYTE / Adapta kinase assay, DNA-PK; conditions: read-out: DNA-PK % Inh. @ 100 nM
Text: as §1, §2, §3, §4, §5, §6, §7, §8, §9, §10, §11

EGFR = EGFR (Homo sapiens (Human), UniProt P00533); test: Z'-LYTE / Adapta kinase assay, EGFR; conditions: read-out: EGFR % Inh. @ 100 nM
Text: as §1, §2, §3, §4, §5, §6, §7, §8, §9, §10, §11

Chain of EGFR (P00533 25-1210): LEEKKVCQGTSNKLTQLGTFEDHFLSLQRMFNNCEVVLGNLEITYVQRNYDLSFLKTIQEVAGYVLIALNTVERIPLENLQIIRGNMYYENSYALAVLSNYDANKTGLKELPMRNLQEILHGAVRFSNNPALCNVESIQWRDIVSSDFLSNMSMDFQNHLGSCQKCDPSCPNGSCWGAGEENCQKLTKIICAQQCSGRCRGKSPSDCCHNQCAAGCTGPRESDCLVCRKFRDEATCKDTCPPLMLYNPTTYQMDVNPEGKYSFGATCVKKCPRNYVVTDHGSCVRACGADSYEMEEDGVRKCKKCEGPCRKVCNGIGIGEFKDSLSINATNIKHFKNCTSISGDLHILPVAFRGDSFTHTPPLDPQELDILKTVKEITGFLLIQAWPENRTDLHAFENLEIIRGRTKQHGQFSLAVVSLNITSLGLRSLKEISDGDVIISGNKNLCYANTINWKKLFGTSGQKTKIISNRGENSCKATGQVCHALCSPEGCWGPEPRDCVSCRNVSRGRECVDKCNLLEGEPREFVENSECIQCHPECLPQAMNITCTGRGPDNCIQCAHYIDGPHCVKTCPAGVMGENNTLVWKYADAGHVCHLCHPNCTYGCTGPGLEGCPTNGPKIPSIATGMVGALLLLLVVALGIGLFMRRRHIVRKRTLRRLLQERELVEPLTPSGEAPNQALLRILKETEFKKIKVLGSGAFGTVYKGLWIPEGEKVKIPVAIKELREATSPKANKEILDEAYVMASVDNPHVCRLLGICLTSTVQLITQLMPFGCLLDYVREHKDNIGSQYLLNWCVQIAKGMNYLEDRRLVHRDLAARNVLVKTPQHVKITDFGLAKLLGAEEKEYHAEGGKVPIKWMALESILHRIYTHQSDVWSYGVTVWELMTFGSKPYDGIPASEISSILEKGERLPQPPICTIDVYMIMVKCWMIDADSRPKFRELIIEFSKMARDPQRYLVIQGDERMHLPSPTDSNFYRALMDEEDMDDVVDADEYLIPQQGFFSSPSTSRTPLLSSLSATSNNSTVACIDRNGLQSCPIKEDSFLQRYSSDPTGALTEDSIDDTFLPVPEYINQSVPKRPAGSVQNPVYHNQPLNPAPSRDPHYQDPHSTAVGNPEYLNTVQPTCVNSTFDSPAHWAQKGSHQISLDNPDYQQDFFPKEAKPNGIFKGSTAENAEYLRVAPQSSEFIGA
Chain of PI3Ka (P42336 whole entry): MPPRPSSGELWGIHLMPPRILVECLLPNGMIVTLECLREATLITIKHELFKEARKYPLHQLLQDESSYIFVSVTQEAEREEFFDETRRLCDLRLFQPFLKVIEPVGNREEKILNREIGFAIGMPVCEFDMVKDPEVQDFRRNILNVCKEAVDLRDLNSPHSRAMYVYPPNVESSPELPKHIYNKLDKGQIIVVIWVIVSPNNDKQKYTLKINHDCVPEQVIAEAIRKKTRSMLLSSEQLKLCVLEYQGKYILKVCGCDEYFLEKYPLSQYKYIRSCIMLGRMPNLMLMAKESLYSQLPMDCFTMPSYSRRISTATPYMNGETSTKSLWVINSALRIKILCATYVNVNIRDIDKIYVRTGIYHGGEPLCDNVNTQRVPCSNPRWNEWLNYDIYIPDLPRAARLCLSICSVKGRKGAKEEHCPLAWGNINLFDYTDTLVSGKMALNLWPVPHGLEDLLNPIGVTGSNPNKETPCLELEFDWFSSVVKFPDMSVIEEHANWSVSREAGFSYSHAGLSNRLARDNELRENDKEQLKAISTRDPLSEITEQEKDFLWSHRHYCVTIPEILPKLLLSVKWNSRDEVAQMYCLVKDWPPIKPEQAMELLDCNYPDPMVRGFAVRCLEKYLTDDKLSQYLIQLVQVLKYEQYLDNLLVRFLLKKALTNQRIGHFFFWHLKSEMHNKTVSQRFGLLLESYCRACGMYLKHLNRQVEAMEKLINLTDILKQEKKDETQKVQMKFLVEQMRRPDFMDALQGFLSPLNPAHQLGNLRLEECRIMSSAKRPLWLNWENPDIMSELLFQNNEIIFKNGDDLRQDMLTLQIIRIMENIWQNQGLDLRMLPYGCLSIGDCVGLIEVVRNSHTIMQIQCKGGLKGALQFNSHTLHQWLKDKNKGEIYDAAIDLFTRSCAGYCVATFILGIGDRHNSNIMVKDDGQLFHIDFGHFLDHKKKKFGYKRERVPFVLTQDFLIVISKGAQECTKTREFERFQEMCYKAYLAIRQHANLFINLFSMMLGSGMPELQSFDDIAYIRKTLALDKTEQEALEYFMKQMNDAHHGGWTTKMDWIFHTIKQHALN
Chain of PI3Ka (P27986 whole entry partner): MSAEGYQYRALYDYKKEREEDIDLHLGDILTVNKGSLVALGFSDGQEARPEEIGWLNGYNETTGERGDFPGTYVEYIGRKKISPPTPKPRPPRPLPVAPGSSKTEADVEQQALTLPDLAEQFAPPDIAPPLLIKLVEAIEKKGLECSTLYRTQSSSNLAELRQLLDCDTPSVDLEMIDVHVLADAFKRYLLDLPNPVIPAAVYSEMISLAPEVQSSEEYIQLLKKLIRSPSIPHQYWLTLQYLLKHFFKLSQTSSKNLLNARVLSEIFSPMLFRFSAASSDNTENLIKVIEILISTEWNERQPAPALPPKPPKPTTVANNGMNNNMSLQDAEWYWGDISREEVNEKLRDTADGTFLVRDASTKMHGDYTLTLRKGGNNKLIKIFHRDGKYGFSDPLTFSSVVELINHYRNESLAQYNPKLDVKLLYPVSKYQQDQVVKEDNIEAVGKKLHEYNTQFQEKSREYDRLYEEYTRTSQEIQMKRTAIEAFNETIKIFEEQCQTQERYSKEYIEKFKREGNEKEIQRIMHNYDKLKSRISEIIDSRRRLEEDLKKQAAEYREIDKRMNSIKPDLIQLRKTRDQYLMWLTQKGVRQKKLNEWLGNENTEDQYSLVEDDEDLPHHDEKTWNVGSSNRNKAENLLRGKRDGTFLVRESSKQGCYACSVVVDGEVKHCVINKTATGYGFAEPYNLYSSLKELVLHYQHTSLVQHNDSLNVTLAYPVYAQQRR

SMILES | inhibition at 0.1 µM (PI3Ka) | inhibition at 0.1 µM (DNA-PK) | inhibition at 0.1 µM (EGFR)
CC(Nc1ncnc2ccc(-c3cnc4[nH]ncc4c3)cc12)c1ccccc1 (centres unmarked) [Compound 8, N-(1-phenylethyl)-6-(1H-pyrazolo[3,4-b]pyridin-5-yl)quinazolin-4-amine] | 10 to 80% | 10 to 80% | 80 to 90%
Cc1nc2cc(-c3ccc4ncnc(NC(C)c5ccccc5)c4c3)cnc2[nH]1 (centres unmarked) [Compound 10, 6-(2-methyl-1H-imidazo[4,5-b]pyridin-6-yl)-N-(1-phenylethyl)quinazolin-4-amine] | 10 to 80% | 10 to 80% | 80 to 90%
CC(Nc1ncnc2ccc(-c3cncc(C(C)(C)O)c3)cc12)c1ccccc1 (centres unmarked) [Compound 21, 2-[5-[4-(1-phenylethylamino)quinazolin-6-yl]-3-pyridyl]propan-2-ol] | 10 to 80% | 10 to 80% | 80 to 90%
CC(Nc1ncnc2ccc(-c3cnc4[nH]nnc4c3)cc12)c1ccccc1 (centres unmarked) [Compound 24, N-(1-phenylethyl)-6-(3H-triazolo[4,5-b]pyridin-6-yl)quinazolin-4-amine] | 10 to 80% | 10 to 80% | > 90%
CC(Nc1ncnc2ccc(-c3cnc4cnn(C)c4c3)cc12)c1ccccc1 (centres unmarked) [Compound 27, 6-(1-methylpyrazolo[4,3-b]pyridin-6-yl)-N-(1-phenylethyl)quinazolin-4-amine] | < 10% | 10 to 80% | 10 to 80%
CC(Nc1ncnc2ccc(-c3cnc(N)c(S(C)(=O)=O)c3)cc12)c1ccccc1 (centres unmarked) [Compound 31, 6-(6-amino-5-(methylsulfonyl)pyridin-3-yl)-N-(1-phenylethyl)quinazolin-4-amine] | 80 to 90% | > 90% | > 90%
CC(Nc1ncnc2ccc(-c3cnc4cncn4c3)cc12)c1ccccc1 (centres unmarked) [Compound 34, 6-(imidazo[1,5-a]pyrimidin-3-yl)-N-(1-phenylethyl)quinazolin-4-amine] | > 90% | 80 to 90% | > 90%
CC(Nc1ncnc2ccc(-c3cnc(N)c(C(=O)N(C)C)c3)cc12)c1ccccc1 (centres unmarked) [Compound 36, 2-amino-N, N-dimethyl-5-[4-(1-phenylethylamino)quinazolin-6-yl] pyridine-3-carboxamide] | 10 to 80% | 10 to 80% | 10 to 80%
CC(Nc1ncnc2ccc(-c3ccc4oc(N)nc4c3)cc12)c1ccccc1 (centres unmarked) [Compound 41, 5-[4-(1-phenylethylamino)quinazolin-6-yl]-1,3-benzoxazol-2-amine] | 10 to 80% | < 10% | > 90%
C[C@@H](Nc1c(C#N)cnc2ccc(-c3cnc4[nH]ncc4c3)cc12)c1ccccc1 [Compound 54R, 4-[[(1R)-1-phenylethyl]amino]-6-(1H-pyrazolo [3,4-b]pyridin-5-yl) quinoline-3-carbonitrile] | 10 to 80% | 10 to 80% | 80 to 90%
CC(Nc1c(C#N)cnc2ccc(-c3cnc4[nH]ccc4c3)cc12)c1ccccc1 (centres unmarked) [Compound 55, 4-(1-phenylethylamino)-6-(1H-pyrrolo [2,3-b]pyridin-5-yl) quinoline-3-carbonitrile] | < 10% | 10 to 80% | 10 to 80%
Cc1nc2cc(-c3ccc4ncc(C#N)c(NC(C)c5ccccc5)c4c3)cnc2[nH]1 (centres unmarked) [Compound 56, 6-(2-methyl-3H-imidazo[4,5-b]pyridin-6-yl)-4-(1-phenylethylamino) quinoline-3-carbonitrile] | 10 to 80% | 10 to 80% | 10 to 80%
CC(Nc1c(C#N)cnc2ccc(-c3cncc(O)c3)cc12)c1ccccc1 (centres unmarked) [Compound 61, 6-(5-hydroxy-3-pyridyl)-4-(1-phenylethylamino) quinoline-3-carbonitrile] | < 10% | 10 to 80% | 80 to 90%
CC(Nc1c(C#N)cnc2ccc(-c3cnc(N)c(C(F)(F)F)c3)cc12)c1ccccc1 (centres unmarked) [Compound 62, 6-(6-amino-5-(trifluoromethyl)pyridin-3-yl)-4-((1-phenylethyl)amino)quinoline-3-carbonitrile] | < 10% | 10 to 80% | 10 to 80%
CC(Nc1c(C#N)cnc2ccc(-c3cncc(C#N)c3)cc12)c1ccccc1 (centres unmarked) [Compound 64, 6-(5-cyano-3-pyridyl)-4-(1-phenylethylamino) quinoline-3-carbonitrile] | 10 to 80% | 10 to 80% | 10 to 80%
CC(Nc1c(C#N)cnc2ccc(-c3cnc(N)c(C#N)c3)cc12)c1ccccc1 (centres unmarked) [Compound 65, 6-(6-amino-5-cyano-3-pyridyl)-4-(1-phenylethylamino) quinoline-3-carbonitrile] | 10 to 80% | 10 to 80% | 80 to 90%
CC(Nc1c(C#N)cnc2ccc(-c3cncc(C(C)(C)O)c3)cc12)c1ccccc1 (centres unmarked) [Compound 67, 6-[5-(1-hydroxy-1-methyl-ethyl)-3-pyridyl]-4-(1-phenylethylamino) quinoline-3-carbonitrile] | 10 to 80% | 10 to 80% | 10 to 80%
COc1cc(-c2ccc3ncc(C#N)c(NC(C)c4ccccc4)c3c2)cnc1OC (centres unmarked) [Compound 68, 6-(5,6-dimethoxy-3-pyridyl)-4-(1-phenylethylamino)quinoline-3-carbonitrile] | 10 to 80% | 10 to 80% | 80 to 90%
CC(Nc1c(C#N)cnc2ccc(-c3cnc4[nH]nnc4c3)cc12)c1ccccc1 (centres unmarked) [Compound 70, 4-(1-phenylethylamino)-6-(3H-triazolo [4,5-b]pyridin-6-yl) quinoline-3-carbonitrile] | 10 to 80% | 10 to 80% | 80 to 90%
CC(Nc1c(C#N)cnc2ccc(-c3cnc4cnn(C)c4c3)cc12)c1ccccc1 (centres unmarked) [Compound 73, 6-(1-methylpyrazolo [4,3-b]pyridin-6-yl)-4-(1-phenylethylamino) quinoline-3-carbonitrile] | 10 to 80% | < 10% | 10 to 80%
CC(Nc1c(C#N)cnc2ccc(-c3ccc4oc(N)nc4c3)cc12)c1ccccc1 (centres unmarked) [Compound 87, 6-(2-amino-1,3-benzoxazol-5-yl)-4-(1-phenylethylamino) quinoline-3-carbonitrile] | 10 to 80% | < 10% | 80 to 90%
CS(=O)(=O)Nc1cc(-c2ccc3ncc(C#N)c(NC4c5ccccc5CC4O)c3c2)cnc1Cl (centres unmarked) [Compound 103, N-[2-chloro-5-[3-cyano-4-[(2-hydroxyindan-1-yl)amino]-6-quinolyl]-3-pyridyl]methanesulfonamide] | – | > 90% | < 10%
CC(Nc1c(C#N)cnc2ccc(-c3cnc4ccccc4c3)cc12)c1ccccc1 (centres unmarked) [Compound 122, 4-(1-phenylethylamino)-6-(3-quinolyl)quinoline-3-carbonitrile] | < 10% | < 10% | 10 to 80%
CC(Nc1c(C#N)cnc2ccc(-c3cccnc3)cc12)c1ccccc1 (centres unmarked) [Compound 123, 4-(1-phenylethylamino)-6-(3-pyridyl) quinoline-3-carbonitrile] | < 10% | 10 to 80% | > 90%
CC(Nc1c(C#N)cnc2ccc(-c3n[nH]c4ccncc34)cc12)c1ccccc1 (centres unmarked) [Compound 124, 4-(1-phenylethylamino)-6-(1H-pyrazolo [4,3-c]pyridin-3-yl) quinoline-3-carbonitrile] | < 10% | < 10% | > 90%
